Laboratory results published in patent US6939850B2, “Altered human interleukin-1β convertase (ICE), NEDD-2, and C. elegans ced-3 polypeptides and uses therefor” (Massachusetts Institute of Technology, priority 1992, dated 2005).

System: chick spinal motoneurons
Assay: Motoneuron culture deprived of muscle extract, survival
Assay type: cell-based
Details: without muscle extract, treated between 14 and 24 hours, counted after 3 days
Excerpt: A tissue culture model system that allows isolation of a relatively pure population of motoneurons whose survival is dependent on muscle extract, a potent source of target-derived trophic support, was used to test the ability of peptide inhibitors of ICE to block motoneuron cell death (Milligan et al., J Neurobiology 25:1005-1016 (1994) and Block-Gallego et al., Development. 111:221-232 (1991)). The death of motoneurons deprived of trophic support in vitro requires new gene expression and occurs by apoptosis (Milligan et al., J. Neurobiology 25:1005-1016 (1994)). Motoneurons deprived of trophic support at the time of plating become irreversibly committed to undergo cell death after 16-18 hours (Milligan et al., J. Neurobiology 25:1005-1016 (1994)). […] When motoneurons are treated with peptide inhibitors in the absence of muscle extract for three days and subsequently supplemented on day three with muscle extract, they continue to survive, and by six days appear as healthy and differentiated as the motoneurons that were continuously supplied with muscle extract (FIGS. 12A, 12B, 15G). Thus, motoneurons rescued for 3 days by ICE inhibitors remain capable of responding to trophic factors present in muscle extract.
Methods for motoneuron cultures. […]

Substance: Acetyl-Tyr-Val-Ala-Asp-aldehyde [Ac-YVAD-CHO]
- motoneuron death: inhibitory effects on motoneuron death
